Measured values: US20030119775A1, “Respiration uncoupling protein” (DUKE UNIVERSITY, priority 1997, published 2003)

Columns and labels:
[1] = system: UCP2 mRNA; test: UCP2 mRNA levels in mouse tissues after treatment; type: in vivo, Swiss mice
From the text: Regulation of UCP2 has been examined for factors that would regulate UCP1. In 11-week-old fed male Swiss mice, UCP2 mRNA was detected in BAT, WAT, thigh muscle and liver. […] Thus, UCP2 is regulated very differently than UCP1, which is induced by cold and β3 agonists.

[2] = system: mitochondria isolated from yeast; test: Respiratory rates in mitochondria isolated from yeast; type: biochemical
From the text: Respiratory rates have been measured in mitochondria isolated from yeast containing the empty pYeDP vector and the pUCP2 vector (Table 1). […] Addition of ADP stimulates respiration more in control mitochondria, again showing the UCP2 mitochondria are more uncoupled.

[3] = system: UCP2 expression in Rat Basophilic Leukemia cell (RBL); test: Northern blot of UCP2 expression in RBL cells; type: cell-based; parameters: dose or concentration left out as unconfirmed
From the text: (A) A tumor mast cell line, the Rat Basophilic Leukemia cell (RBL), is a model system for studies of immune system signal transduction. In the RBL cell, binding of an antigen to the IgE receptor on the cell surface results in the activation of phospholipase C-gamma (PLCg). This event leads to the activation of protein kinase C (PKC) and an increase in intracellular calcium which are required for degranulation and gene expression in RBL cells. Several drugs can mimic the intracellular events and degranulation occuring in this cell type in response to antigen activation of the IgE receptor. The inophore Ionomycin causes the release of calcium from intracellular calcium stores and the phorbol ester PMA is able to directly activate PKC. Both of these drugs are required to achieve maximal activation of RBL cells. In order to determine the expression level of UCP2 in RBL cells, these cells were treated with Ionomycin ([…]), PMA ([…]) or both drugs.

[4] = system: UCP2 mRNA in macrophage RAW cells; test: UCP2 mRNA in cultured macrophage RAW cells, northern normalized for actin; type: cell-based, mouse; conditions: macrophages treated with LPS
From the text: (B) Bacterial lipopolysaccharide (LPS) regulates UCP2 mRNA in macrophages. Bacterial LPS is known to induce many of the features of infection, including fever. Thioglycolate elicited mouse macrophage (peritoneal exudate cells, PEC) have been studied for regulation of UCP2 mRNA by LPS. […] A study has also be made of UCP2 expression in cultured mouse macrophage RAW cells. These cells express UCP2. […] The LPS mediated decrease of UCP2 is not affected by indomethacin or by PGE2. All fo the macrophage northerns are normalized for actin expression and have been repeated at least once. […] The results are consistent with a role of UCP2 in immune function.

[5] = Roe et al, Metabolism 46:359 (1997); cited from earlier work
[6] = system: mitochondrial potential of transformed yeast; test: Flow cytometry of mitochondrial membrane potential with DiOC6(3) in transformed yeast; type: cell-based, Saccharomyces cerevisiae
From the text: FIG. 2. Flow cytometry analysis of membrane potential following the expression of UCP2 in S. cerevisiae; comparison of wild-type UCP1 and non-active UCP1 mutants. The number of cells (counts, Y-axis) is represented on a logarithmic scale of 1024 channels. The X-axis is a logarithmic scale of fluorescence intensity. A shift of the curve towards the left indicates a decreased mitochondrial potential. The horizontal bar on the left indicates the position of cells treated with mCICCP, a chemical uncoupler. The expression of UCP2, UCP1 or UCPmut mRNA in recombinant yeast, as well as its absence in wild type yeast, was checked by Northern blots.
(§1) Yeast transfections and functional analysis using flow cytometry. The diploid yeast (Saccharomyces cerevisiae) strain W303 (a/α; ade2-10; his 3-11-15; leu2-2, 112; ura3-1; can1-100; try-Δ1) was used for expression of UCP2. The pYedP-UCP2 or UCPmut expression vectors were introduced into yeast by electroporation and transformants were selected for uracil […] as described by Bouillaud et al (EMBO J. 13:1990 (1994)). Expression of the UCP2, UCP1 or UCPmut under the control of the gal-cyc promoter was induced by galactose in the absence of glucose. Growth of yeast for flow cytometry analysis and measurement of mitochondrial membrane potential using the DiOC6(3) fluorescent probe (3,3′-dihexyloxacarbocyanine iodine, Molecular Probes, Eugene, Oreg.) are described by Bouillaud et al (EMBO J. 13:1990 (1994)).
The in vivo decrease of membrane potential associated with uncoupling of respiration was analyzed by flow cytometry of yeast labeled with the potential sensitive probe DiOC6(3) . […] In the case of UCP2, 2 peaks were observed, one equivalent to cells expressing UCP1 and a second peak corresponding to a very low mitochondrial potential. Mean fluorescence intensities were: empty vector, 65.5; UCPmut, 43.0; UCP1, 22.5; UCP2, 15.5 and UCP2+mCICCP, 0.4 (FIG. 2). Very similar results were obtained in two additional experiments.

[7] = system: yeast (Saccharomyces cerevisiae) strain W303; test: Growth rate (instantaneous generation time) of transformed yeast after galactose induction; type: cell-based; conditions: liquid medium, galactose-induced expression; ±SD
From the text: as §1
To test the hypothesis that UCP2 is an uncoupling protein, yeast were transfected with UCP2 in an expression vector as previously reported for UCP1 (Bouillaud et al, EMBO J. 13:1990 (1994)). Rates of growth in liquid medium of transformed yeast were measured in the presence of galactose, which induces expression. Instantaneous generation times were compared after induction of vector, UCP2, control (empty) and UCP1 expression vectors. […]

[8] = yeast carrying the expression vector, lower = decreased mitochondrial potential

Molecule: C[C@H](Cc1ccc2c(c1)OC(C(=O)[O-])(C(=O)[O-])O2)NC[C@H](O)c1cccc(Cl)c1.[Na+].[Na+] [CL316,243]
- Effect on UCP2 mRNA levels ([1]; 11-week-old fed male Swiss mice, BAT, WAT, thigh muscle and liver, treatment for 10 days): did not influence UCP2 mRNA levels

Molecule: N#CC(C#N)=NNc1ccc(OC(F)(F)F)cc1 [FCCP]
- Respiratory rate increase factor upon addition of uncoupler ([2]; control (pYeDP) mitochondria): 7.1
- Respiratory rate increase factor upon addition of uncoupler ([2]; pUCP2 mitochondria): 4.3

Molecule: C[C@H](CCC(=O)O)C[C@H](C)C[C@H](C)C(=O)/C=C(\O)[C@H](C)C[C@H](C)C/C=C/[C@@H](C)[C@@H](O)[C@@H](C)[C@@H](O)C[C@@H]1CC[C@@](C)([C@H]2CC[C@@](C)([C@@H](C)O)O2)O1 [Ionomycin]
- Induction of UCP2 expression versus untreated control cells [3]: ~4 fold

Molecule: CCCCC[C@H](O)/C=C/[C@H]1[C@H](O)CC(=O)[C@@H]1C/C=C\CCCC(=O)O [PGE2]
- Effect on the LPS mediated decrease of UCP2 [4]: not affected

Molecule: CCCCCCCCCCCCCC(=O)O[C@@H]1[C@@H](C)[C@@]2(O)[C@@H](C=C(CO)C[C@]3(O)C(=O)C(C)=C[C@@H]23)[C@@H]2C(C)(C)[C@]12OC(C)=O [PMA]
- Induction of UCP2 expression versus untreated control cells [3]: ~4 fold

Molecule: COc1ccc2c(c1)c(CC(=O)O)c(C)n2C(=O)c1ccc(Cl)cc1 [indomethacin]
- Effect on the LPS mediated decrease of UCP2 [4]: not affected
- Effect on increased O2 consumption associated with cachexia of malignancy [5]: attenuated

Molecule: N#CC(C#N)=NNc1cccc(Cl)c1 [mCICCP]
- Mean fluorescence intensity (DiOC6(3)) ([6]; UCP2-expressing yeast treated with mCICCP): 0.4

Molecule: leptin: leptin, shown to increase sympathetic outflow to brown fat
- Effect on UCP2 expression ([1]; 2 μg, 2×/day for 4 days): failed to increased UCP2 expression
- Influence on UCP2 expression ([1]; general statement: in vitro or in vivo): not to influence UCP2 expression

B1: UCP2: uncoupling protein-2, expressed in yeast from the pYedP-UCP2 expression vector (protein, UniProt P55851 1-309, looked up)
Dicarboxylate carrier SLC25A8: MVGFKATDVPPTATVKFLGAGTAACIADLITFPLDTAKVRLQIQGESQGPVRATASAQYRGVMGTILTMVRTEGPRSLYNGLVAGLQRQMSFASVRIGLYDSVKQFYTKGSEHASIGSRLLAGSTTGALAVAVAQPTDVVKVRFQAQARAGGGRRYQSTVNAYKTIAREEGFRGLWKGTSPNVARNAIVNCAELVTYDLIKDALLKANLMTDDLPCHFTSAFGAGFCTTVIASPVDVVKTRYMNSALGQYSSAGHCALTMLQKEGPRAFYKGFMPSFLRLGSWNVVMFVTYEQLKRALMAACTSREAPF
- Mean fluorescence intensity (DiOC6(3)) [6, 8]: 15.5
- Instantaneous generation time [7]: 260 ± 29 min

B2: UCP1: uncoupling protein-1 of brown adipose tissue, expressed in yeast for comparison (protein, UniProt P25874 1-307, looked up)
Mitochondrial brown fat …: MGGLTASDVHPTLGVQLFSAGIAACLADVITFPLDTAKVRLQVQGECPTSSVIRYKGVLGTITAVVKTEGRMKLYSGLPAGLQRQISSASLRIGLYDTVQEFLTAGKETAPSLGSKILAGLTTGGVAVFIGQPTEVVKVRLQAQSHLHGIKPRYTGTYNAYRIIATTEGLTGLWKGTTPNLMRSVIINCTELVTYDLMKEAFVKNNILADDVPCHLVSALIAGFCATAMSSPVDVVKTRFINSPPGQYKSVPNCAMKVFTNEGPTAFFKGLVPSFLRLGSWNVIMFVCFEQLKRELSKSRQTMDCAT
- Mean fluorescence intensity (DiOC6(3)) [6, 8]: 22.5
- Instantaneous generation time [7]: 226 ± 10 min
